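Five compound concentrations were applied to cells in 96-well plates for 48 hours; endpoints were derived by simple linear interpolation of the resulting dose-response curve. GI50 is the concentration that inhibits growth by half. TGI: total growth inhibition.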
How the values were obtained:
Assay in all cases: NCI tumour cell line growth inhibition, 48 h
786-0 renal = system: 786-0 renal
A549 NSCLC = system: A549 NSCLC
COLO 205 colon = system: COLO 205 colon
HOP-62 NSCLC = system: HOP-62 NSCLC
HOP-92 NSCLC = system: HOP-92 NSCLC
OVCAR-3 ovarian = system: OVCAR-3 ovarian
SK-MEL-2 melanoma = system: SK-MEL-2 melanoma
TK-10 renal = system: TK-10 renal
U251 CNS = system: U251 CNS
DU-145 prostate = system: DU-145 prostate

| SMILES | TGI (786-0 renal) [µM] | TGI (A549 NSCLC) [µM] | TGI (COLO 205 colon) [µM] | TGI (HOP-62 NSCLC) [µM] | TGI (HOP-92 NSCLC) [µM] | TGI (OVCAR-3 ovarian) [µM] | TGI (SK-MEL-2 melanoma) [µM] | TGI (TK-10 renal) [µM] | TGI (U251 CNS) [µM] | TGI (DU-145 prostate) [µM] | GI50 (786-0 renal) [µM] | GI50 (A549 NSCLC) [µM] | GI50 (COLO 205 colon) [µM] | GI50 (DU-145 prostate) [µM] | GI50 (HOP-62 NSCLC) [µM] | GI50 (HOP-92 NSCLC) [µM] | GI50 (OVCAR-3 ovarian) [µM] | GI50 (TK-10 renal) [µM] | GI50 (U251 CNS) [µM] | GI50 (SK-MEL-2 melanoma) [µM] |
| --- | --- | --- | --- | --- | --- | --- | --- | --- | --- | --- | --- | --- | --- | --- | --- | --- | --- | --- | --- | --- |
| CC1CCC2(NC1)OC1CC3[C@@H]4CC=C5C=CCC[C@]5(C)C4CC[C@]3(C)C1C2C (stereo partly drawn) | 35.5 | 58.5 | 34.6 | 36.6 | 61.8 | 80.5 | 35.2 | 35.3 | 88.7 |  |  |  |  |  |  |  |  |  |  |  |
| CC(=O)O[C@H]1CC[C@@]2(C)C(CC[C@]3(C)C2CC[C@]2(C)Oc4c(C)cc(O)cc4C[C@@H]23)C1(C)C (stereo partly drawn) | 4.44 | 21.2 | 29.7 | 30.6 | 18.2 | 25.7 | 21.4 | 29.3 | 7.96 |  |  |  |  |  |  |  |  |  |  |  |
| ON(CCc1ccncc1)Cc1ccccc1 | > 100 | > 100 | > 100 | > 100 | > 100 | > 100 |  |  |  | > 100 |  |  |  |  |  |  |  |  |  |  |
| O=CN1N=C(c2ccc(Nc3ccnc4cc(Cl)ccc34)cc2)CC1c1ccccc1 (stereo not drawn) | 12.2 | > 100 | 6.15 | 76.5 | > 100 | 7.71 |  | 38.5 | 19.2 | 27.8 | 3.36 | 4.05 | 2.21 | 3.8 | 5.26 | 4.28 | 2.78 | 9.51 | 3.12 |  |
| CNc1nc(C)c(-c2nc(Nc3cccc(S(N)(=O)=O)c3)ncc2F)s1 | 3.42 | 15.2 | 0.0532 |  |  | 14.4 | 0.0939 | 1.17 | 11.5 | 17.6 | 0.0248 | 0.0874 | 0.0212 | 0.0358 | < 0.0201 |  | 0.0302 | 0.0644 | 0.0268 | 0.0358 |
| O=c1[nH]c(=O)n(C2CC(O)C(CO)O2)cc1C(OCC(F)(F)F)OCC(F)(F)F (stereo not drawn) | > 100 | > 100 | > 100 | > 100 | > 100 | > 100 | > 100 | > 100 | > 100 |  |  |  |  |  |  |  |  |  |  |  |
| OCCN(CCO)c1cccc(N(CCO)CCO)c1 | > 100 | > 100 | > 100 | > 100 | > 100 | > 100 | > 100 | > 100 | > 100 |  |  |  |  |  |  |  |  |  |  |  |
| CS(=O)(=O)N(CCC#N)c1ccc(/C=N/NC(=O)CC(=O)Nc2cccc(Cl)c2)cc1 | > 100 | > 100 | > 100 | > 100 |  | > 100 | > 100 | > 100 | > 100 |  |  |  |  |  |  |  |  |  |  |  |
| Cc1cc2c(cc1C)[n+](=O)c(C(=O)/C=C/c1ccc(Cl)cc1)c(C)n2[O-] | 34.4 | 80.4 | 41.1 | 68.7 | > 100 | > 100 | 79.1 | 58.5 | 67.9 |  |  |  |  |  |  |  |  |  |  |  |
| O=C(O)CNS(=O)(=O)c1ccc(NC(=O)c2ccc(F)cc2)cc1 | > 100 | > 100 | > 100 |  | > 100 | > 100 | > 100 | > 100 | > 100 |  |  |  |  |  |  |  |  |  |  |  |
| N#CCCN(CCC#N)c1ccc(/C=C2\N=C(COc3ccc(Cl)cc3Cl)OC2=O)cc1 | > 100 | > 100 | > 100 | > 100 |  | > 100 | > 100 | > 100 | > 100 |  |  |  |  |  |  |  |  |  |  |  |
| O=c1[nH]c(-c2ccccc2)nc2ccc(Cl)cc12 | > 100 | > 100 | > 100 |  | 84.1 | > 100 | > 100 | > 100 | > 100 |  |  |  |  |  |  |  |  |  |  |  |
| O=C(CC1(O)C(=O)Nc2ccc(Br)cc21)c1ccc(Cl)cc1 (stereo not drawn) | > 100 | > 100 | > 100 | > 100 | 87.6 | > 100 | > 100 | > 100 | 95.1 |  |  |  |  |  |  |  |  |  |  |  |
| NC1CCCCC1N.O=C([O-])P(=O)([O-])[O-].[Na+].[Pt+4] (stereo not drawn) | > 100 | > 100 |  | > 100 |  | > 100 |  | > 100 | > 100 |  | > 100 | > 100 |  |  | > 100 |  | > 100 | > 100 | > 100 |  |
| Nc1nc2c(c3ncccc13)C(c1ccc(Cl)c(Cl)c1)Cc1ncccc1-2 (stereo not drawn) | 13.4 | 15.3 | 7.3 | 14 |  | 7.63 | 15.8 | 20.5 | 13.9 | 12.5 | 3.49 | 4.24 | 2.65 | 3.6 | 2.96 |  | 2.59 | 6.46 | 3.78 | 3.79 |
